Data set [1] concerns Daudi non-Hodgkin lymphoma xenograft model. Set-up: method as in PMID 22693356. Particulars: cited from earlier work.
Data set [2] deals with T1, Mnk1 (Homo sapiens, UniProt Q9BUB5).
T1 construct: 1.00 ng of Mnk1 or Mnk2 was incubated with different concentrations
As to the kind of experiment: Mnks inhibition HTRF assay (Mnk1). In kind it is biochemical. Particulars: compound at 1 μM, 121 µM ATP, mean of triple independent experiments, read-out: %inhib. 1 μM Mnk1.

Data set [3] relates to PC-3 cells. Description: Anti-proliferative MTT assay. Particulars: Homo sapiens, 96 h incubation, mean of three experiments. In kind it is cell-based. Here is the method: As Mnks and HDACs are overexpressed in prostate cancer, the GI50 values of the target compounds against PC-3 cell line were determined by an MTT assay. […] When the zinc-binding motif was hydroxamic acid, the anti-proliferative effect was better than o-phenylenediamine (except A03 and A04). The length of the flexible linker has a significant influence on the anti-proliferative activity: compounds containing a NH unite and 6 methylene groups were greatly better than compounds containing a NH unite and 5 methylene groups (A11 vs. A12).
The human prostatic cancer PC-3 cell line was cultured in RPMI1640 with 10% (v/v) heat-inactivated fetal bovine serum. The anti-proliferative activity of synthetic compounds were evaluated by the methylthiazolyltetrazolium bromide (MTT) assay. Cells (2 × 10^4 cells/well) were incubated in a humidified atmosphere with 5% CO2 at 37 °C for 24 h, then various concentrations of each compound mixed in […] medium were added to each well. After incubated for another 96 h, MTT solution (50 μL of 2 mg/mL) was added to each well and incubated for an additional 4 h. The medium was removed by aspiration and the cells were dissolved in […] DMSO. The absorbance at 570 nm was measured in the 96-well plate reader. Growth inhibition was calculated and expressed as the ratio of the cell number in the treated group to that of the untreated group. The GI50 values were calculated according to inhibition ratios. All experiments were performed three times independently, and the results were reported presented as the mean.

Data set [4] relates to HDACs. Description: HDACs inhibition fluorescence assay (HeLa nuclear extracts). In kind it is biochemical. Particulars: substrate Boc-Lys(Ac)-AMC, mean of duplicate experiments. Here is the method:
(§1) To investigate the HDAC and Mnk inhibitory potency of the target compounds, the inhibition rate of Mnk1 and Mnk2 at 1 μM were determined using homogeneous time-resolved fluorescence assay (HTRF) and the IC50 value against HDAC was determined by fluorescence analysis.
The general procedure for the enzyme assay was carried out according to the published protocol with slight modification. For the HDACs assay, HeLa nuclear extracts (Enzo Life Sciences, NY, USA) were used as a source of histone deacetylase. All reactions were performed in the black half area 96-well microplates. A serial dilution of the inhibitors and enzymes were pre-incubated at 25 °C for 15 min, and then fluorogenic substrate Boc-Lys(Ac)-AMC was added. After incubation at 37 °C for 60 min, the mixture was stopped by the addition of […] of developer containing trypsin and vorinostat for 10 min. Fluorescence intensity was measured using a Varioskan Flash Station (Thermo Scientific, MA, USA) at excitation and emission wavelengths of 355 (or 360 for the HeLa NuEx) and 460 nm, respectively. The IC50 values were extracted by curve fitting the dose/response slopes.

The target in data set [5] is Mnk2 (Homo sapiens, UniProt Q9HBH9). As to the kind of experiment: Mnks inhibition HTRF assay (Mnk2). In kind it is biochemical. To be noted: compound at 1 μM, 39.2 µM ATP, mean of triple independent experiments, read-out: %inhib. 1 μM Mnk2. Here is the method: as §1
1.00 ng of Mnk1 or Mnk2 was incubated with different concentrations (10,000 nM, 1000 nM, 100 nM, 10 nM, and 1 nM) of test compounds in an 10 µL reaction mixture (Mnk1: 1 µM substrate S1, 10 mM MgCl2, 121 µM ATP, 1 × KinEASE enzymatic buffer and 1 mM dithiothreitol (DTT Mnk2: 1 µM substrate S1, 10 mM MgCl2, 39.2 µM ATP, 1 × KinEASE enzymatic buffer and 1 mM DTT for 60 min at 25 °C. The mixture of 5 µL SA-XL665 and 5 µL STK Ab detection reagents following the kit protocol was added to terminate the reaction.
(In general: In TR-FRET formats the signal depends on donor and acceptor labels being close together.)

This is an account of results in paper PMC7571151, “Design, Synthesis and Bioactivity Evaluation of 4,6-Disubstituted Pyrido[3,2-d]pyrimidine Derivatives as Mnk and HDAC Inhibitors” (Molecules, 2020).

Sequence of Mnk2 (Q9HBH9 whole entry): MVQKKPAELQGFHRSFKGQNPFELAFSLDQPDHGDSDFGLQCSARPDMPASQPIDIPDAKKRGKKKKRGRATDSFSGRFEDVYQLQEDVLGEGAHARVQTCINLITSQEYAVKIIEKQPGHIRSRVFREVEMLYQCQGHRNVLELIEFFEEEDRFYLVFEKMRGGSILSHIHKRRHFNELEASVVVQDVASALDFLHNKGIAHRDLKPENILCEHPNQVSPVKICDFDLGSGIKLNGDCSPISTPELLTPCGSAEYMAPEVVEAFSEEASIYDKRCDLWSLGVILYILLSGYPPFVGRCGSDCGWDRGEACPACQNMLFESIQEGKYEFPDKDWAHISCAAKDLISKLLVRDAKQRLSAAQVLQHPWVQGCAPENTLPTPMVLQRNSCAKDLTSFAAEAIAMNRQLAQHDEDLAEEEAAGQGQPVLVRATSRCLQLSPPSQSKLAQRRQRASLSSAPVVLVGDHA
T1 sequence (Q9BUB5 whole entry): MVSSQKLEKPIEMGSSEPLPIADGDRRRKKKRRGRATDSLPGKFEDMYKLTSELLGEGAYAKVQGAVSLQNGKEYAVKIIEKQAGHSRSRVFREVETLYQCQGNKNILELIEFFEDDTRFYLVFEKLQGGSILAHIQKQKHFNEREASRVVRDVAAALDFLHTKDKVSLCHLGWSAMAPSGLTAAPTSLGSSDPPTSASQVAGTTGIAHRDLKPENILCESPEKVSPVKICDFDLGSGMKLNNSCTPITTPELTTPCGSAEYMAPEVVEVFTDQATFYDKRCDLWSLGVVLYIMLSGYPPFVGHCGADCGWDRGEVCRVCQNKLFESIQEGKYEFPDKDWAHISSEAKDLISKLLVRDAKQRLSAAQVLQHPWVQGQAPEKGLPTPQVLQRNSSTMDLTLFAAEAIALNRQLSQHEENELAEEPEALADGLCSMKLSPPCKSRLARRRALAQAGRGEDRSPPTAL

Regarding `COc1ccc(-c2nc(N3CCOCC3)c3sc(CN(C)c4ncc(C(=O)NO)cn4)cc3n2)cn1` [CUDC-907], in data set [1] (Daudi non-Hodgkin lymphoma xenograft model), the tumor growth result is recorded as “inhibited tumor growth in a dose-dependent manner”. Moreover, the “Ac-H3 and p-AKT levels” value in data set [1] (in vivo anti-tumor activity studies) was “accumulation of Ac-H3 and a decrease in p-AKT levels”.
For `CNC(=O)c1cc(F)ccc1Nc1ncnc2ccc(NCCCCCCC(=O)NO)nc12` [Compound A16, 5-Fluoro-2-((6-((7-(hydroxyamino)-7-oxoheptyl)amino)pyrido[3,2-d]pyrimidin-4-yl)amino)-N-methylbenzamide], the melting point (in general, the temperature, or range, at which the solid turns liquid) lay in the range of 185.5 to 187 °C. Further, the inhibition at 1 µM in data set [2] stood at 29%. For the same molecule, the GI50 – broadly, the concentration at which growth is held to half of that of the control – in data set [3] was 4.38 µM. The IC50 (usually the concentration needed to halve the response being measured) in data set [4] worked out at 0.037 µM. The inhibition at 1 µM in data set [5] is 34%.
`O=C(CCCCCCNc1ccc2ncnc(Nc3ccc(F)cc3F)c2n1)NO` [Compound A17, 7-((4-((2,4-Difluorophenyl)amino)pyrido[3,2-d]pyrimidin-6-yl)amino)-N-hydroxyheptanamide] registered a melting point of 188.8 to 191.7 °C. The inhibition at 1 µM in data set [2] was determined as 29%. Also, the 50% growth inhibitory concentration (GI50) in data set [3] is > 20 µM. Moreover, the IC50 in data set [4] is 0.16 µM. Further, in data set [5], the inhibition at 1 µM turned out to be 23%.
For `O=C(CCCCCCNc1ccc2ncnc(Nc3ccc(F)c(Cl)c3)c2n1)NO` [Compound A19, 7-((4-((3-Chloro-4-fluorophenyl)amino)pyrido[3,2-d]pyrimidin-6-yl)amino)-N-hydroxyheptanamide] the same measures were 207.9 to 208.5 °C, 16%, > 20 µM, 1.18 µM and 56%.
